Each structure is given as a SMILES string.

For the assay, the target named is T1, MET kinase (Homo sapiens, UniProt P08581).
T1 construct: Sf9 insect cell culture expressing the kinase domain of human Met; 6x Histidine tag (TEV-cleavable) (cleaved yes); made in house; host or cells: Sf9 insect cells
T1 sequence (P08581 1078-1345 limits assumed): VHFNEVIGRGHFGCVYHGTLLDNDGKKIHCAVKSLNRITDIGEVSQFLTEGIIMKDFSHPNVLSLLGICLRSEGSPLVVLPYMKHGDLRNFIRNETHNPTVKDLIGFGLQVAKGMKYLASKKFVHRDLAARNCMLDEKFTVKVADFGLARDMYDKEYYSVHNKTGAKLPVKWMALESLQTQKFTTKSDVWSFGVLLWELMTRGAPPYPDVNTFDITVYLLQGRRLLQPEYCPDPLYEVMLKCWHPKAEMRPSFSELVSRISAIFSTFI
The experiment in a line: Met Bioassay (luminescence-based enzyme assay, Kinase-Glo). It is filed as biochemical. The following applies: 10 μM ATP. The source says: In addition to the c-Abl PK/LDH coupled assay (above), homogeneous luminescence-based inhibitor screening assays were developed for c-Abl, MET, AurA, and PDK1 kinases (among others). Each of these assays made use of an ATP depletion assay (Kinase-Glo™, Promega Corporation, Madison, Wis.) to quantitate kinase activity. The Kinase-Glo™ format uses a thermostable luciferase to generate luminescent signal from ATP remaining in solution following the kinase reaction. The luminescent signal is inversely correlated with the amount of kinase activity.
Materials: Poly Glu-Tyr (4:1) substrate (Sigma Cat# P-0275), ATP (Sigma Cat#A-3377, FW=551), HEPES buffer, pH 7.5, Bovine serum albumin (BSA) (Roche 92423420), MgCl2, Staurosporine (Streptomyces sp. Sigma Cat#85660-1MG), white Costar 384-well flat-bottom plate (VWR Cat#29444-088). MET kinase (see below), Kinase-Glo™ (Promega Cat#V6712).
Stock Solutions: 10 mg/ml poly Glu-Tyr in water, stored at −20° C.; 100 mM HEPES buffer, pH 7.5 (5 ml 1M stock+45 ml miliQH2O); 10 mM ATP (5.51 mg/ml in dH2O) stored at −20° C. (diluted 50 μl into total of 10 ml miliQH2O daily=50 μM ATP working stock); 1% BSA (1 g BSA in 100 ml 0.1M HEPES, pH 7.5, stored at −20° C.), 100 mM MgCl2; 200 μM Staurosporine, 2× Kinase-Glo™ reagent (made fresh or stored at −20° C.).
Standard Assay Setup for 384-well format (20 μl kinase reaction, 40 μl detection reaction): 10 mM MgCl2; 0.3 mg/ml poly Glu-Tyr; 0.1% BSA; 1 μl test compound (in DMSO); 0.4 μg/ml MET kinase; 10 μM ATP; 100 mM HEPES buffer. Positive controls contained DMSO with no test compound. Negative controls contained 10 μM staurosporine. The kinase reactions were initiated at time t=0 by the addition of ATP. Kinase reactions were incubated at 21° C. for 60 min, then 20 μl of Kinase-Glo™ reagent were added to each well to quench the kinase reaction and initiate the luminescence reaction. After a 20 min incubation at 21° C., the luminescence was detected in a plate-reading luminometer.
The cell pellets produced from half of a 12 L Sf9 insect cell culture expressing the kinase domain of human Met were resuspended in a buffer containing 50 mM Tris-HCl pH 7.7 and 250 mM NaCl, in a volume of approximately 40 ml per 1 L of original culture. One tablet of Roche Complete, EDTA-free protease inhibitor cocktail (Cat# 1873580) was added per 1 L of original culture. The suspension was stirred for 1 hour at 4° C. Debris was removed by centrifugation for 30 minutes at 39,800×g at 4° C. The supernatant was decanted into a 500 ml beaker and 10 ml of 50% slurry of Qiagen Ni-NTA Agarose (Cat# 30250) that had been pre-equilibrated in 50 mM Tris-HCl pH 7.8, 50 mM NaCl, 10% Glycerol, 10 mM Imidazole, and 10 mM Methionine, were added and stirred for 30 minutes at 4° C. The sample was then poured into a drip column at 4° C. and washed with 10 column volumes of 50 mM Tris-HCl pH 7.8, 500 mM NaCl, 10% Glycerol, 10 mM Imidazole, and 10 mM Methionine. The protein was eluted using a step gradient with two column volumes each of the same buffer containing 50 mM, 200 mM, and 500 mM Imidazole, sequentially. The 6× Histidine tag was cleaved overnight using 40 units of TEV protease (Invitrogen Cat#10127017) per 1 mg of protein while dialyzing in 50 mM Tris-HCl pH 7.8, 500 mM NaCl, 10% Glycerol, 10 mM Imidazole, and 10 mM Methionine at 4° C. The 6× Histidine tag was removed by passing the sample over a Pharmacia 5 ml IMAC column (Cat# 17-0409-01) charged with Nickel and equilibrated in 50 mM Tris-HCl pH 7.8, 500 mM NaCl, 10% Glycerol, 10 mM Imidazole, and 10 mM Methionine. The cleaved protein bound to the Nickel column at a low affinity and was eluted with a step gradient. The step gradient was run with 15% and then 80% of the B-side (A-side=50 mM Tris-HCl pH 7.8, 500 mM NaCl, 10% Glycerol, 10 mM Imidazole, and 10 mM Methionine; B-side=50 mM Tris-HCl pH 7.8, 500 mM NaCl, 10% Glycerol, 500 mM Imidazole, and 10 mM Methionine) for 4 column volumes each. […]
In turn, `COc1ccccc1-c1c[nH]c2ncc(-c3ccc(CN(C)C)cc3)cc12` [AE8] showed an IC50 of less than 1 µM.
`O=C(c1cncc(-c2cnc3[nH]cc(-c4ccc5cc[nH]c5c4)c3c2)c1)N1CCOCC1` [AE14] returned an IC50 of less than 1 µM.
For `c1cc2cc(-c3c[nH]c4ncc(-c5ccc6[nH]cnc6c5)cc34)ccc2[nH]1` [AE22] the value was 1 to 5 µM; for `COc1ccccc1-c1c[nH]c2ncc(-c3ccc(O)c(CN4CCCN(C)CC4)c3)cc12` [AE41], 1 to 5 µM.
For `COc1ccccc1-c1c[nH]c2ncc(-c3cccc(C(=N)N4CCCCC4)c3)cc12` [AE42] the value was less than 1 µM; for `Oc1cccc(-c2cnc3[nH]cc(-c4ccc(O)c(F)c4)c3c2)c1` [AE48], less than 1 µM.
The same measure for `COc1cc(-c2cnc3[nH]cc(-c4ccc(O)cc4)c3c2)ccc1O` [AE58]: 1 to 5 µM.
In the case of `COc1cc(-c2cnc3[nH]cc(-c4ccccc4OC)c3c2)ccc1OCCN1CCCC1` [AE65], the IC50 was 1 to 5 µM.

As usually defined, the IC50 is the point on the concentration scale where inhibition reaches its midpoint. Low values mean greater potency, high ones weaker potency.

The values above are taken from US7709645B2, “Pyrrolo-pyridine kinase modulators” (SGX Pharmaceuticals, Inc., priority 2004, dated 2010).
